Reference: US20110020434A1, “NANOPARTICLE ARSENIC-PLATINUM COMPOSITIONS” (priority 2005, published 2011)
Read-outs that look alike come from different tables or passages of the source.

Tests used:
[1] = tested on: MCF-7 (FR−) cells; assay: Quantitative cellular drug uptake by ICP-MS; assay type: cell-based, human; conditions: 3 h at 37° C.
Source text: Cell culture. SU-DHL-4 (human lymphoma B cells) was from the Deutsche Sammlung von Mikroorganismen and Zellkulturen GmbH (DSMZ, Braunschweig, Germany). MM.1S (human multiple myeloma B cells) was previously established in the laboratory of Prof. Steven. T. Rosen (Robert H. Lurie Comprehensive Cancer Center, Northwestern University). IM-9 (human lymphoblast B cells), MDA-MB-231 (human breast adenocarcinoma cells), OVCAR-3 (human ovary adenocarcinoma cells), KB (human nasopharyngeal epidermal carcinoma cells, FR), and MCF-7 (human breast carcinoma cells, FR^-) (Sonvico et al. J. Drug Del. Sci. Tech. 2005, 15, 407-410, Chen et al. Mol. Cancer Ther. 2009, in press., herein incorporated by reference in their entireties) were purchased from ATCC (Manassas, Va., USA). All Cells were maintained at 37° C. in an incubator with 5% CO2 and harvested in the exponential phase of growth. SU-DHL-4, IM-9, and MM.1S cells were cultured in RPMI-1640 supplemented with 10% FBS, 2 mM glutamine, 100 units/mL penicillin-streptomycin, and 2.5 μg/mL Amphotericin B. MDA-MB-231 cells were cultured in DMEM/F12 supplemented with 5% cds-FBS, 2 mM glutamine, 100 units/mL penicillin-streptomycin, and 0.1% human insulin solution. […]
Cells were plated, 24 h before each experiment, in 6-well plates with 500,000 cells per well. […] Cell-associated drug was expressed as As and Pt atoms per cell (SEE FIG. 12E and Table 4.

[2] = tested on: MM.1S (human multiple myeloma B cells); assay: MTS cell proliferation cytotoxicity assay; assay type: cell-based; conditions: 72 h drug treatment
Source text: (§1) Cell culture. SU-DHL-4 (human lymphoma B cells) was from the Deutsche Sammlung von Mikroorganismen and Zellkulturen GmbH (DSMZ, Braunschweig, Germany). MM.1S (human multiple myeloma B cells) was previously established in the laboratory of Prof. Steven. T. Rosen (Robert H. Lurie Comprehensive Cancer Center, Northwestern University). IM-9 (human lymphoblast B cells), MDA-MB-231 (human breast adenocarcinoma cells), OVCAR-3 (human ovary adenocarcinoma cells), KB (human nasopharyngeal epidermal carcinoma cells, FR), and MCF-7 (human breast carcinoma cells, FR^-) (Sonvico et al. J. Drug Del. Sci. Tech. 2005, 15, 407-410, Chen et al. Mol. Cancer Ther. 2009, in press., herein incorporated by reference in their entireties) were purchased from ATCC (Manassas, Va., USA). All Cells were maintained at 37° C. in an incubator with 5% CO2 and harvested in the exponential phase of growth. SU-DHL-4, IM-9, and MM.1S cells were cultured in RPMI-1640 supplemented with 10% FBS, 2 mM glutamine, 100 units/mL penicillin-streptomycin, and 2.5 μg/mL Amphotericin B. MDA-MB-231 cells were cultured in DMEM/F12 supplemented with 5% cds-FBS, 2 mM glutamine, 100 units/mL penicillin-streptomycin, and 0.1% human insulin solution. OVCAR-3 cells were cultured in RPMI-1640 supplemented with 20% FBS, 100 units/mL penicillin-streptomycin, and 0.1% human insulin solution. MCF-7 cells was cultured in EMEM supplemented with 10% FBS, 2 mM glutamine, 100 units/mL penicillin-streptomycin and 2.5 μg/mL Amphotericin B. KB cells were cultured in EMEM supplemented with 10% FBS and 50 units/mL penicillin-streptomycin. For folate-targeting experiments, KB cells were transferred into folate-deficient RPMI-1640 medium for more than one week before each experiment (Lee et al. J. Biol. Chem. 1994, 269, 3198-3204, herein incorporated by reference in its entirety).
(§2) The MTS assay is one of most high throughput and economical assays for detecting viability of cancer cells. Briefly, SU-DHL-4 and IM-9 (40,000 cells/mL), and MM.1S (250,000 cells/mL) were treated with drugs and plated in quadruplicate (100 uL/well) onto 96-well plates. For MDA-MB-231 and OVCAR-3, 20,000 cells/mL were plated in quadruplicate (100 uL/well) onto 96-well plates, incubated overnight and then treated with drugs. After incubation for the indicated period at 37° C., the MTS/PMS solution (20 μL/well) was added to each well and the plates were further incubated for 4 h at 37° C. before reading the absorbance at 490 nm. Cell growth rates were expressed as a function of drug concentration on a logarithmic scale. The IC50 values (the drug concentration required for 50% inhibition of cell growth) were determined by fitting to a sigmoidal dose-response curve using Origin 6.0 software (Microcal Software, Inc., Northampton, USA). In the case of the 1.5 h (SEE FIG. 8B) or 2 h (SEE FIG. 9B) time periods, the cells treated with drugs were first incubated for 1.5 h or 2 h at 37° C., then washed twice with PBS to remove un-associated drugs or liposomes, and further incubated up to 48 h (FIG. 8b) or 72 h (FIG. 9b) in drug-free medium, followed by the MTS assay.

[3] = tested on: OVCAR-3 (human ovary adenocarcinoma cells); assay: MTS cell proliferation cytotoxicity assay; assay type: cell-based; conditions: 72 h drug treatment
Source text: as §1, §2

[4] = tested on: MCF-7 (FR−) human breast carcinoma cells; assay: Guava ViaCount cytotoxicity assay, folate-targeted liposomes; assay type: cell-based
Source text: as §1
(§3) The in vitro cytotoxicities of folate-targeted liposomes against KB and MCF-7 cells were determined by Guave ViaCount assay (Stearns et al. Cancer Res. 2006, 66, 673-681, Donaldson et al. Cell Death Differ 2009, 16, 125-138, herein incorporated by reference in their entireties) (The MTS assay is not applicable in this case because the folate moiety interferes with the reactions of MTS/PMS agents and seriously impairs accuracy of cell viability (Chen et al. Mol. Cancer Ther. 2009, in press.)). Cells were first plated in 48-well plates at a density of 30,000-60,000 cells/mL, 0.2 mL per well. After 24 h at 37° C., the media were replaced with drug solutions. Cells were thus incubated with drugs continuously for 72 h, or exposed to drugs for 3 h at 37° C., then washed with PBS ×2 and further incubated up to 72 h in drug-free medium. The same Pt concentrations of aqua-cisPt were used as in f-NB(As, Pt). Cell viability was determined by Guave ViaCount (Stearns et al. Cancer Res. 2006, 66, 673-681, Donaldson et al. Cell Death Differ 2009, 16, 125-138, herein incorporated by reference in their entireties), using a Guava EasyCyte Mini flow cytometer (Guava Technologies, Hayward, Calif.). Cells, after released from plates by trypsinization (using 0.05% trypsin/0.02% EDTA), were stained with the Guava Viacount agent, which contains two fluorescent dyes, one cell permeable and one impermeable. This allows viable and dead cell numbers to be accurately determined by Guava Viacount software. Cell growth rates were expressed as a function of drug concentration on a logarithmic scale. The IC50 values (the drug concentration required for 50% inhibition of cell growth) were determined by fitting to a sigmoidal dose-response curve using Origin 6.0 (Microcal Software, Inc., Northampton, USA) (SEE FIGS. 12F-G and Table 3).

[5] = tested on: KB (FR+) human nasopharyngeal epidermal carcinoma cells; assay: as above; assay type: cell-based
Source text: as §1, §3

[6] = tested on: SU-DHL-4 (human lymphoma B cells); assay type: cell-based; conditions: 48 h drug treatment
Source text: as §1, §2

[7] = tested on: IM-9 (human lymphoblast B cells); assay type: cell-based; conditions: 48 h drug treatment
Source text: as §1, §2

[8] = tested on: MDA-MB-231 (human breast adenocarcinoma cells); assay type: cell-based; conditions: 72 h drug treatment
Source text: as §1, §2

[9] = tested on: human lymphoma cell line SU-DHL-4 (CD20-positive); assay: MTS cytotoxicity assay of liposomal Ni-arsenic and Rituxan conjugate; assay type: cell-based; conditions: 72 h (three days) at 37° C.; read-out: IC50 (arsenic level), SU-DHL-4
Procedure: The human lymphoma B cell line of SU-DHL-4 (CD20-positive) was obtained from the American Type Culture Collection (Rockville, MD, USA). Cells were cultured in RPMI 1640 (Invitrogen Corporation) supplemented with 10% fetal bovine serum, 2 mM glutamine, 100 units/mL penicillim, 100 ug/mL streptomycin, and 2.5 ug/mL fungizone. Cells were maintained at 37° C. in an incubator with 5% CO2 and harvested in the exponential phase of growth.
Cells (25,000 cells/mL) were treated with various drugs and plated in 96-well plates. After incubation for 72 h at 37° C., the MTS solution (20 uL/well) was added to each well and the plates were further incubated for 4 h at 37° C. before the absorbance readings at 490 nm.
In a parallel experiment, SU-DHL-4 cells (100,000 cells/mL) were treated with various drugs and plated in 96-well plates. After incubation at 37° C. for 20 min, cells were washed twice using 200 uL/well of PBS and refilled with 100 uL/well of fresh medium and incubated for an additional 71.6 h. The MTS solution (20 uL/well) was added to each well and the plates were further incubated for 4 h at 37° C. before taking the absorbance readings at 490 nm.

For Arsenic trioxide [As2O3], the “Cellular uptake, MCF-7 (FR^−), As” value ([1]; 10 μM arsenic) was 9.4 ± 2.3 ×10^7 atoms/cell, the IC50 ([2]; based on As concentration) was 0.58 µM and the IC50 ([3]; based on As concentration) was 2.7 ± 1.1 µM. It also gave an IC50 ([4]; continuous 72 h incubation, As concentration, read-out: MCF-7 (FR^−), IC50 (μM), 72 h) of 6.9 ± 1.7 µM, an IC50 ([4]; read-out: MCF-7 (FR^−), IC50 (μM), 3 h, 3 h exposure, washed, drug-free medium up to 72 h, As concentration) of 63.7 ± 22.3 µM and an IC50 ([5]; continuous 72 h incubation, As concentration, read-out: KB (FR^+), IC50 (μM), 72 h) of 5.2 ± 1 µM. For the same compound, the IC50 ([5]; read-out: KB (FR^+), IC50 (μM), 3 h, 3 h exposure, washed, drug-free medium up to 72 h, As concentration) was > 200 µM, the IC50 ([6]; based on As concentration) was 3.7 µM and the IC50 ([7]; based on As concentration) was 2.1 ± 0.03 µM. For the same compound, the IC50 ([8]; based on As concentration) was 10 µM and the IC50 [9] was 1.45 µM.
Work on `N.N.[Cl][Pt][Cl]` [CisPt, cis-diamine dichloroplatinum(II)] yielded an IC50 ([2]; based on Pt concentration) of 1.43 µM, an IC50 ([3]; based on Pt concentration) of 2 ± 0.01 µM and an IC50 ([6]; based on Pt concentration) of 3.5 µM. It also gave an IC50 ([7]; based on Pt concentration) of 0.6 ± 0.2 µM and an IC50 ([8]; based on Pt concentration) of 14 µM.
For `CC(=O)[O-].CC(=O)[O-].N.N.O.O.[Pt+2]` [Aqua-cisPt, [cis-(NH3)2Pt(OH2)2](OAc)2], the “Cellular uptake, MCF-7 (FR^−), Pt” value ([1]; 10 μM arsenic / 8 μM Pt) was 0.24 ± 0.07 ×10^7 atoms/cell, the IC50 ([3]; based on Pt concentration) was 2.6 ± 0.8 µM and the IC50 ([4]; continuous 72 h incubation, Pt concentration, read-out: MCF-7 (FR^−), IC50 (μM), 72 h) was 12.2 ± 0.4 µM. For the same compound, the IC50 ([4]; read-out: MCF-7 (FR^−), IC50 (μM), 3 h, 3 h exposure, washed, drug-free medium up to 72 h, Pt concentration) was 88.9 ± 14.4 µM, the IC50 ([5]; continuous 72 h incubation, Pt concentration, read-out: KB (FR^+), IC50 (μM), 72 h) was 1.3 ± 0.2 µM and the IC50 ([5]; read-out: KB (FR^+), IC50 (μM), 3 h, 3 h exposure, washed, drug-free medium up to 72 h, Pt concentration) was 9.7 ± 2.5 µM. It also gave an IC50 ([6]; based on Pt concentration) of 5.5 µM, an IC50 ([7]; based on Pt concentration) of 1 ± 0.01 µM and an IC50 ([8]; based on Pt concentration) of 17.9 µM.
